This test relates to MV-4-11 cells. Kind of test: Gene expression microarray analysis (Affymetrix PrimeView) and GSEA. It counts as cell-based, human. The arrangement: RFU PODN (11730768_x_at) / Fold change /veh PODN (11730768_x_at) / RFU LINC00158 (11744669_a_at) / Fold change /veh LINC00158 (11744669_a_at) / RFU DUSP10 (11751237_a_at) / Fold change /veh DUSP10 (11751237_a_at) / RFU ID3 (11757404_x_at) / Fold change /veh ID3 (11757404_x_at) / RFU PLEKHG5 (11737974_s_at) / Fold change /veh PLEKHG5 (11737974_s_at) / RFU LRRC4B (11730491_at) / Fold change /veh LRRC4B (11730491_at) / RFU GIMAP4 (11747438_a_at) / Fold change /veh GIMAP4 (11747438_a_at) / RFU KRT8 (11758183_x_at) / Fold change /veh KRT8 (11758183_x_at) / RFU CNN1 (11734310_a_at) / Fold change /veh CNN1 (11734310_a_at) / RFU VPS37D (11726825_at) / Fold change /veh VPS37D (11726825_at) / RFU C10orf10 (11716522_x_at) / Fold change /veh C10orf10 (11716522_x_at) / RFU KIR2DL2 /// KIR2DL4 /// KIR2DL5A /// KIR2DL5B /// KIR2DS1 /// KIR2DS2 /// KIR2DS3 /// KIR2DS4 /// KIR3DL3 /// KIR3DL3 /// KIR3DS1 (11738374_at) / Fold change /veh KIR2DL2 /// KIR2DL4 /// KIR2DL5A /// KIR2DL5B /// KIR2DS1 /// KIR2DS2 /// KIR2DS3 /// KIR2DS4 /// KIR3DL3 /// KIR3DL3 /// KIR3DS1 (11738374_at) / RFU C1QL1 (11718748_at) / Fold change /veh C1QL1 (11718748_at) / RFU TMPRSS4 (11747572_a_at) / Fold change /veh TMPRSS4 (11747572_a_at) / RFU HAMP (11756126_x_at) / Fold change /veh HAMP (11756126_x_at) / RFU RNFT2 (11725882_a_at) / Fold change /veh RNFT2 (11725882_a_at) / RFU NR4A2 (11747474_a_at) / Fold change /veh NR4A2 (11747474_a_at) / RFU ABCC12 (11746883_a_at) / Fold change /veh ABCC12 (11746883_a_at) / RFU TMEM136 (11760407_x_at) / Fold change /veh TMEM136 (11760407_x_at) / RFU CLDN22 /// WWC2 (11732394_at) / Fold change /veh CLDN22 /// WWC2 (11732394_at) / RFU HLA-DPB1 (11760878_x_at) / Fold change /veh HLA-DPB1 (11760878_x_at) / RFU SPINT1 (11716480_a_at) / Fold change /veh SPINT1 (11716480_a_at) / RFU GAP43 (11754022_s_at) / Fold change /veh GAP43 (11754022_s_at) / RFU A4GNT (11735810_at) / Fold change /veh A4GNT (11735810_at) / RFU PRB3 (11715151_x_at) / Fold change /veh PRB3 (11715151_x_at) / RFU TUBB4B (11761932_at) / Fold change /veh TUBB4B (11761932_at) / RFU CAPN14 (11732068_a_at) / Fold change /veh CAPN14 (11732068_a_at) / RFU TMCC2 (11721928_a_at) / Fold change /veh TMCC2 (11721928_a_at) / RFU IRGQ (11745062_a_at) / Fold change /veh IRGQ (11745062_a_at) / RFU FAM174B (11720279_a_at) / Fold change /veh FAM174B (11720279_a_at) / RFU TMPRSS4 (11748680_a_at) / Fold change /veh TMPRSS4 (11748680_a_at) / RFU FAM212B (11763350_a_at) / Fold change /veh FAM212B (11763350_a_at) / RFU PLEKHG5 (11743358_a_at) / Fold change /veh PLEKHG5 (11743358_a_at) / RFU ZSCAN30 (11745921_a_at) / Fold change /veh ZSCAN30 (11745921_a_at) / RFU CMKLR1 (11741424_a_at) / Fold change /veh CMKLR1 (11741424_a_at) / RFU LOC101060620 /// MAPK8IP1 (11723275_at) / Fold change /veh LOC101060620 /// MAPK8IP1 (11723275_at) / RFU SPTSSB (11747773_x_at) / Fold change /veh SPTSSB (11747773_x_at) / RFU PRSS12 (11739890_at) / Fold change /veh PRSS12 (11739890_at) / RFU BIN1 (11741810_x_at) / Fold change /veh BIN1 (11741810_x_at) / RFU WNT11 (11732464_a_at) / Fold change /veh WNT11 (11732464_a_at) / RFU C10orf10 (11716521_a_at) / Fold change /veh C10orf10 (11716521_a_at) / RFU C5orf56 (11738089_at) / Fold change /veh C5orf56 (11738089_at) / RFU CYB561 (11721691_x_at) / Fold change /veh CYB561 (11721691_x_at) / RFU ANKRD19P (11752326_a_at) / Fold change /veh ANKRD19P (11752326_a_at) / RFU OR2T12 /// OR2T33 /// OR2T8 (11738714_s_at) / Fold change /veh OR2T12 /// OR2T33 /// OR2T8 (11738714_s_at) / RFU VCAN (11748164_a_at) / Fold change /veh VCAN (11748164_a_at) / RFU JSRP1 (11732532_at) / Fold change /veh JSRP1 (11732532_at) / RFU KRTAP10-11 (11738290_x_at) / Fold change /veh KRTAP10-11 (11738290_x_at) / RFU MYO3A (11730013_a_at) / Fold change /veh MYO3A (11730013_a_at) / RFU EBF3 (11725865_a_at) / Fold change /veh EBF3 (11725865_a_at) / RFU CAMK2N1 (11719241_x_at) / Fold change /veh CAMK2N1 (11719241_x_at) / RFU C5orf56 (11738088_a_at) / Fold change /veh C5orf56 (11738088_a_at) / RFU OLFML3 (11715873_a_at) / Fold change /veh OLFML3 (11715873_a_at) / RFU LOC100653217 /// NTM (11731650_a_at) / Fold change /veh LOC100653217 /// NTM (11731650_a_at) / RFU MAPK11 (11762145_a_at) / Fold change /veh MAPK11 (11762145_a_at) / RFU FIZ1 (11724087_x_at) / Fold change /veh FIZ1 (11724087_x_at) / RFU OASL (11726364_x_at) / Fold change /veh OASL (11726364_x_at) / RFU SOX15 (11748057_x_at) / Fold change /veh SOX15 (11748057_x_at) / RFU CD79A (11719716_a_at) / Fold change /veh CD79A (11719716_a_at) / RFU HIST1H1D (11736915_at) / Fold change /veh HIST1H1D (11736915_at) / RFU CASKIN2 (11723855_a_at) / Fold change /veh CASKIN2 (11723855_a_at) / RFU LOC730098 (11760151_x_at) / Fold change /veh LOC730098 (11760151_x_at) / RFU OR4N2 (11742367_at) / Fold change /veh OR4N2 (11742367_at) / RFU PRRT2 (11749266_a_at) / Fold change /veh PRRT2 (11749266_a_at) / RFU SNX32 (11753110_a_at) / Fold change /veh SNX32 (11753110_a_at) / RFU CDHR5 (11726645_a_at) / Fold change /veh CDHR5 (11726645_a_at) / RFU RCAN1 (11760418_a_at) / Fold change /veh RCAN1 (11760418_a_at) / RFU FAM167A (11723789_a_at) / Fold change /veh FAM167A (11723789_a_at) / RFU FAM26E (11764081_at) / Fold change /veh FAM26E (11764081_at) / RFU ISYNA1 (11749810_s_at) / Fold change /veh ISYNA1 (11749810_s_at) / RFU ACY1 (11761880_at) / Fold change /veh ACY1 (11761880_at) / RFU 11764098_at / Fold change /veh 11764098_at / RFU SAMD14 (11745864_x_at) / Fold change /veh SAMD14 (11745864_x_at) / RFU NPB (11741838_a_at) / Fold change /veh NPB (11741838_a_at) / RFU TMPRSS6 (11731388_a_at) / Fold change /veh TMPRSS6 (11731388_a_at) / RFU KRTAP10-2 (11738614_at) / Fold change /veh KRTAP10-2 (11738614_at) / RFU ARHGAP8 /// PRR5-ARHGAP8 (11727945_x_at) / Fold change /veh ARHGAP8 /// PRR5-ARHGAP8 (11727945_x_at) / RFU KRTAP5-7 /// NADSYN1 (11734609_at) / Fold change /veh KRTAP5-7 /// NADSYN1 (11734609_at) / RFU RASL12 (11751679_a_at) / Fold change /veh RASL12 (11751679_a_at) / RFU CDKN2B (11736163_a_at) / Fold change /veh CDKN2B (11736163_a_at) / RFU PRF1 (11729649_at) / Fold change /veh PRF1 (11729649_at) / RFU, ZNF638 /// ZNF638-IT1 / Fold change vs veh, ZNF638 /// ZNF638-IT1 / RFU, PANK3 / Fold change vs veh, PANK3 / RFU, SH3YL1 / Fold change vs veh, SH3YL1 / RFU, ZEB2 / Fold change vs veh, ZEB2 / RFU, NRIP1 / Fold change vs veh, NRIP1 / RFU, PTTG1IP / Fold change vs veh, PTTG1IP / RFU, CAPN2 / Fold change vs veh, CAPN2 / RFU, MED14 / Fold change vs veh, MED14 / RFU, SNORA58 / Fold change vs veh, SNORA58 / RFU, C1orf63 / Fold change vs veh, C1orf63 / RFU, LRRFIP1 / Fold change vs veh, LRRFIP1 / RFU, NDUFAF7 / Fold change vs veh, NDUFAF7 / RFU, SLC12A2 / Fold change vs veh, SLC12A2 / RFU, IBTK / Fold change vs veh, IBTK / RFU, ESF1 / Fold change vs veh, ESF1 / Fold change vs veh, TMEM50B / RFU, TAOK1 / Fold change vs veh, TAOK1 / RFU, ACBD3 / Fold change vs veh, ACBD3 / RFU, TMA16 / Fold change vs veh, TMA16 / RFU, RWDD3 / Fold change vs veh, RWDD3 / RFU, BCAT1 / Fold change vs veh, BCAT1 / RFU, EDEM3 / Fold change vs veh, EDEM3 / RFU, TMEM33 / Fold change vs veh, TMEM33 / RFU, WDR75 / Fold change vs veh, WDR75 / RFU, AHCTF1 / Fold change vs veh, AHCTF1 / RFU, TFRC / Fold change vs veh, TFRC / RFU, ZDHHC17 / Fold change vs veh, ZDHHC17 / RFU, NOM1 / Fold change vs veh, NOM1 / RFU, ARL8B / Fold change vs veh, ARL8B / RFU, ZBTB11 / Fold change vs veh, ZBTB11 / RFU, TAMM41 / Fold change vs veh, TAMM41 / RFU, KIAA1704 /// LOC100996395 / Fold change vs veh, KIAA1704 /// LOC100996395 / RFU, ING1 / Fold change vs veh, ING1 / RFU, TRMT61B / Fold change vs veh, TRMT61B / RFU, FUBP3 / Fold change vs veh, FUBP3 / RFU, TP53 / Fold change vs veh, TP53 / RFU, TNKS2 / Fold change vs veh, TNKS2 / RFU, ZFP14 / Fold change vs veh, ZFP14 / RFU, ACTR2 / Fold change vs veh, ACTR2 / RFU, PPP3R1 / Fold change vs veh, PPP3R1 / RFU, PIK3R1 / Fold change vs veh, PIK3R1 / RFU, HNRNPA1 / Fold change vs veh, HNRNPA1 / RFU, RNF170 / Fold change vs veh, RNF170 / RFU, ZNF28 / Fold change vs veh, ZNF28 / RFU, RNGTT / Fold change vs veh, RNGTT / RFU, OGT / Fold change vs veh, OGT / RFU, BRD1 / Fold change vs veh, BRD1 / RFU, MARS / Fold change vs veh, MARS / RFU, ZNF655 / Fold change vs veh, ZNF655 / RFU, FAHD1 / Fold change vs veh, FAHD1 / RFU, BDP1 / Fold change vs veh, BDP1 / RFU, LRRCC1 / Fold change vs veh, LRRCC1 / RFU, ARID1A / Fold change vs veh, ARID1A / RFU, ZNF146 / Fold change vs veh, ZNF146 / RFU, ZNF330 / Fold change vs veh, ZNF330 / RFU, GPN3 / Fold change vs veh, GPN3 / RFU, C9orf123 / Fold change vs veh, C9orf123 / RFU, N4BP2L2 / Fold change vs veh, N4BP2L2 / RFU, ARFIP1 / Fold change vs veh, ARFIP1 / RFU, FAM179B / Fold change vs veh, FAM179B / RFU, BCL10 / Fold change vs veh, BCL10 / RFU, UHRF1BP1L / Fold change vs veh, UHRF1BP1L / RFU, BET1 / Fold change vs veh, BET1 / RFU, CNOT2 / Fold change vs veh, CNOT2 / RFU, ZNF268 / Fold change vs veh, ZNF268 / Fold change vs veh, ZNF507 / RFU, DGCR2 / Fold change vs veh, DGCR2 / RFU, WDSUB1 / Fold change vs veh, WDSUB1 / Fold change vs veh, HSP90B1 /// MIR3652 / RFU, ADSS / Fold change vs veh, ADSS / RFU, GK / Fold change vs veh, GK / RFU, ZNF148 / Fold change vs veh, ZNF148 / RFU, TAF9 / Fold change vs veh, TAF9 / RFU, SLC1A5 / Fold change vs veh, SLC1A5 / RFU, SLMO2 / Fold change vs veh, SLMO2 / RFU, ABCC4 / Fold change vs veh, ABCC4 / RFU, LOC101060439 /// RAP1B / Fold change vs veh, LOC101060439 /// RAP1B / RFU, RFX7 / Fold change vs veh, RFX7 / RFU, GTPBP10 / Fold change vs veh, GTPBP10 / RFU, CNEP1R1 / Fold change vs veh, CNEP1R1 / RFU, BIVM-ERCC5 /// ERCC5 / Fold change vs veh, BIVM-ERCC5 /// ERCC5 / RFU, ILF3 / Fold change vs veh, ILF3 / RFU 11762660_at / Fold change /veh 11762660_at / RFU VCAN (11757783_s_at) / Fold change /veh VCAN (11757783_s_at) / RFU DDX43 (11728927_at) / Fold change /veh DDX43 (11728927_at) / RFU KRT8 (11758188_x_at) / Fold change /veh KRT8 (11758188_x_at) / RFU NKD1 (11759106_at) / Fold change /veh NKD1 (11759106_at) / RFU SRD5A1 (11742802_a_at) / Fold change /veh SRD5A1 (11742802_a_at) / RFU TPSAB1 /// TPSB2 (11721975_s_at) / Fold change /veh TPSAB1 /// TPSB2 (11721975_s_at) / RFU GSTM3 (11746129_a_at) / Fold change /veh GSTM3 (11746129_a_at) / RFU IL23R (11737362_x_at) / Fold change /veh IL23R (11737362_x_at) / RFU TMEM51 (11727254_a_at) / Fold change /veh TMEM51 (11727254_a_at) / RFU PIWIL2 (11732686_x_at) / Fold change /veh PIWIL2 (11732686_x_at) / RFU ORM1 (11744905_x_at) / Fold change /veh ORM1 (11744905_x_at) / RFU CCDC152 (11743942_at) / Fold change /veh CCDC152 (11743942_at) / RFU ECM1 (11717891_a_at) / Fold change /veh ECM1 (11717891_a_at) / RFU IL23R (11748794_a_at) / Fold change /veh IL23R (11748794_a_at) / RFU TNFAIP8L3 (11732012_x_at) / Fold change /veh TNFAIP8L3 (11732012_x_at) / RFU MBOAT4 (11741988_at) / Fold change /veh MBOAT4 (11741988_at) / RFU 11764193_at / Fold change /veh 11764193_at / RFU TMEM53 (11763286_at) / Fold change /veh TMEM53 (11763286_at) / RFU MAGEB2 (11727129_at) / Fold change /veh MAGEB2 (11727129_at) / RFU TMEM200A (11744735_a_at) / Fold change /veh TMEM200A (11744735_a_at) / RFU CCDC152 (11751479_a_at) / Fold change /veh CCDC152 (11751479_a_at) / RFU FAM211A (11726209_a_at) / Fold change /veh FAM211A (11726209_a_at) / RFU RGS16 (11746705_a_at) / Fold change /veh RGS16 (11746705_a_at) / RFU VCAN (11755009_s_at) / Fold change /veh VCAN (11755009_s_at) / RFU RHOB (11743442_s_at) / Fold change /veh RHOB (11743442_s_at) / RFU RGS16 (11720943_a_at) / Fold change /veh RGS16 (11720943_a_at) / RFU RGS16 (11720944_at) / Fold change /veh RGS16 (11720944_at) / RFU, VPS4B / Fold change vs veh, VPS4B / RFU, CREB1 / Fold change vs veh, CREB1 / RFU, DNAJC13 / Fold change vs veh, DNAJC13 / RFU, GNAQ / Fold change vs veh, GNAQ / RFU, CDK5R1 / Fold change vs veh, CDK5R1 / RFU, ZRANB3 / Fold change vs veh, ZRANB3 / RFU, CUL4A / Fold change vs veh, CUL4A / RFU, CCNY / Fold change vs veh, CCNY / RFU, UFL1 / Fold change vs veh, UFL1 / RFU, COG3 / Fold change vs veh, COG3 / RFU, DIAPH2 / Fold change vs veh, DIAPH2 / RFU, SKA2 / Fold change vs veh, SKA2 / RFU, AFF3 / Fold change vs veh, AFF3 / RFU, LMF1 / Fold change vs veh, LMF1 / RFU, IPO11 / Fold change vs veh, IPO11 / RFU, DFFB / Fold change vs veh, DFFB / RFU, FOXP1 / Fold change vs veh, FOXP1 / RFU, CARD8 / Fold change vs veh, CARD8 / RFU, STRN3 / Fold change vs veh, STRN3 / RFU, ADK / Fold change vs veh, ADK / RFU, RASSF2 / Fold change vs veh, RASSF2 / RFU, WIPF1 / Fold change vs veh, WIPF1 / RFU, LARP1B / Fold change vs veh, LARP1B / RFU, RASA1 / Fold change vs veh, RASA1 / RFU, RB1 / Fold change vs veh, RB1 / RFU, PPFIA1 / Fold change vs veh, PPFIA1 / RFU, MAT2A / Fold change vs veh, MAT2A / RFU, CCT5 / Fold change vs veh, CCT5 / RFU, WDR92 / Fold change vs veh, WDR92 / RFU, CUX1 / Fold change vs veh, CUX1 / RFU, TTC7A / Fold change vs veh, TTC7A / RFU, TMEM135 / Fold change vs veh, TMEM135 / RFU, DEPTOR / Fold change vs veh, DEPTOR / RFU, CPM / Fold change vs veh, CPM / RFU, DNAJB6 / Fold change vs veh, DNAJB6 / RFU, CACNA2D3 / Fold change vs veh, CACNA2D3 / RFU, DTX4 / Fold change vs veh, DTX4 / RFU, TFCP2 / Fold change vs veh, TFCP2 / RFU, GMCL1 /// GMCL1P1 / Fold change vs veh, GMCL1 /// GMCL1P1 / RFU, AEBP2 / Fold change vs veh, AEBP2 / RFU, SNHG1 /// SNORD22 /// SNORD25 /// SNORD26 /// SNORD27 /// SNORD28 /// SNORD29 /// SNORD31 / Fold change vs veh, SNHG1 /// SNORD22 /// SNORD25 /// SNORD26 /// SNORD27 /// SNORD28 /// SNORD29 /// SNORD31 / Fold change (Aza/veh), C12orf56 (ProbeSet 11735607_a_at) / Fold change (ACY-1035/veh), C12orf56 (ProbeSet 11735607_a_at) / Fold change (Aza/veh), FGFR1OP (ProbeSet 11751329_s_at) / Fold change (ACY-1035/veh), FGFR1OP (ProbeSet 11751329_s_at) / Fold change (Aza/veh), VPS36 (ProbeSet 11739960_a_at) / Fold change (ACY-1035/veh), VPS36 (ProbeSet 11739960_a_at) / RFU SYPL1 (11715823_x_at) / Fold change /veh SYPL1 (11715823_x_at) / RFU IGFBP7 (11715501_s_at) / Fold change /veh IGFBP7 (11715501_s_at) / RFU REEP3 (11722064_at) / Fold change /veh REEP3 (11722064_at) / RFU IGLL1 (11728026_x_at) / Fold change /veh IGLL1 (11728026_x_at): dose or concentration left out as unconfirmed. To be noted: ProbeSet 11716331_a_at; LIST D.

Take `Nc1ccc(-c2cccs2)cc1NC(=O)c1ccc2c(c1)cc(C1CC1)n2CCN1CCOCC1` [ACY-1035]: the “RFU, DNAJB6” value is 348.58 RFU.
